Measurements reported in ChEMBL document CHEMBL4813973, “Discovery of novel N-benzylbenzamide derivatives as tubulin polymerization inhibitors with potent antitumor activities” (Eur J Med Chem, 2021).
Blank lines part the entries; values can stand above or below the compound they belong to.

Experiments:
[1] = system: A-431; assay: Antiproliferative activity against human A-431 cells assessed as reduction in cell viability incubated for 72 hrs by MTT assay; type: functional, cell-based; conditions: A-431, 72 h
[2] = Metabolic stability in rat plasma assessed as parent compound remaining at 100 nM measured after 60 mins by HPLC analysis; type: ADME, cell-free; conditions: 1 h, 0.1 µM
[3] = system: HCT-8; assay: Antiproliferative activity against human HCT-8 cells assessed as reduction in cell viability incubated for 72 hrs by MTT assay; type: functional, cell-based
[4] = system: MDA-MB-231; assay: Antiproliferative activity against human MDA-MB-231 cells assessed as reduction in cell viability incubated for 72 hrs by MTT assay; type: functional, cell-based; conditions: MDA-MB-231, 72 h
[5] = system: H22; assay: Antiproliferative activity against mouse H22 cells assessed as reduction in cell viability incubated for 72 hrs by MTT assay; type: functional, cell-based; conditions: H22, 72 h
[6] = system: L02; assay: Cytotoxicity against human L02 cells assessed as reduction in cell viability incubated for 72 hrs by MTT assay; type: cell-based; conditions: L02, 72 h
[7] = system: HepG2; assay: cells; conditions: Homo sapiens, HepG2, 72 h
[8] = system: K562; assay: cells; conditions: Homo sapiens, K562, 72 h
Description: (§1) Antiproliferative activity against human K562 cells assessed as reduction in cell viability incubated for 72 hrs by MTT assay

[9] = Resistant index, ratio of IC50 for ADR-resistant human Bel-7402 cells to IC50 for human Bel-7402 cells; type: functional
[10] = system: HCT-8; assay: Antiproliferative activity against taxol-resistant human HCT-8 cells assessed as reduction in cell viability incubated for 72 hrs by MTT assay; type: functional, cell-based; conditions: hct-8
[11] = system: K562/VCR; assay: Antiproliferative activity against VCR resistant human K562/VCR cells assessed as reduction in cell viability incubated for 72 hrs by MTT assay; type: functional, cell-based; conditions: k562/vcr
[12] = system: K562
Description: as §1

[13] = Homo sapiens, HCT-8, 72 h, read-out: IC50

Structure (SMILES): CCOC(=O)[C@H](CCc1ccccc1)N[C@@H](C)C(=O)N1CCC[C@H]1C(=O)O [ENALAPRIL]
Stabilty [2]: Unstable

Structure (SMILES): COc1cc(CNC(=O)c2cc([N+](=O)[O-])ccc2N2CCOCC2)cc(OC)c1OC
IC50 [1]: > 1000 nM

Structure (SMILES): COc1ccc(CNC(=O)c2cc([N+](=O)[O-])ccc2N2CCOCC2)cn1
IC50 [1]: > 1000 nM

Structure (SMILES): COc1ccc(CNC(=O)c2cc(C(F)(F)F)ccc2N2CCCCC2)cc1O
IC50 [1]: 97 nM

Structure (SMILES): O=C(NCc1ccc(Cl)cc1)c1cc([N+](=O)[O-])ccc1N1CCOCC1
IC50 [1]: > 1000 nM

Structure (SMILES): O=C(NCc1ccncc1)c1cc([N+](=O)[O-])ccc1N1CCOCC1
IC50 [1]: > 1000 nM

Structure (SMILES): COc1ccc(CNC(=O)c2cc([N+](=O)[O-])ccc2N2CCSCC2)cc1O
IC50 [1]: 60 nM | IC50 [3, 13]: 60 nM | IC50 [4]: 62 nM | IC50 [5]: 55 nM | IC50 [6]: 113 nM | IC50 [7]: 58 nM | IC50 [8]: 49 nM

Structure (SMILES): COc1ccc(CNC(=O)c2ccccc2N2CCCCC2)cc1O
IC50 [1]: 30 nM | IC50 [3, 13]: 29 nM | IC50 [4]: 29 nM | IC50 [5]: 29 nM | IC50 [6]: 97 nM | IC50 [7]: 31 nM | IC50 [8]: 30 nM

Structure (SMILES): COc1ccc(N2CCCCC2)c(C(=O)NCc2ccc(OC)c(O)c2)c1
IC50 [1]: 57 nM

Structure (SMILES): COc1ccc(CNC(=O)c2cc(Br)ccc2N2CCCCC2)cc1O
IC50 [1]: 92 nM

Structure (SMILES): COc1cccc2c1C(=O)c1c(O)c3c(c(O)c1C2=O)C[C@@](O)(C(=O)CO)C[C@@H]3O[C@H]1C[C@H](N)[C@H](O)[C@H](C)O1.Cl [DOXORUBICIN HYDROCHLORIDE]
IC50 ([3]; hct-8): Not Active | Ratio IC50 [9]: 6.3 | IC50 [10]: Not Active | IC50 [11]: Not Active | IC50 [12]: Not Active

Structure (SMILES): O=C(OCc1cccc2[nH]ccc12)c1cc([N+](=O)[O-])ccc1N1CCOCC1
IC50 [1]: > 1000 nM

Structure (SMILES): COc1ccc(CNC(=O)c2cc([N+](=O)[O-])ccc2N2CCNCC2)cc1O
IC50 [1]: > 1000 nM

Now from value to compound, other results behind:

IC50 [1]: 478 nM
Structure (SMILES): COc1ccc(CNC(=O)c2cc(NC(=O)c3ccco3)ccc2N2CCOCC2)cc1O

IC50 [1]: > 1000 nM
Structure (SMILES): COc1ccc(CNC(=O)c2cc([N+](=O)[O-])ccc2N2CCOCC2)cc1OC

IC50 [1]: 105 nM
Structure (SMILES): COc1ccc(CNC(=O)c2cc(N(C)C)ccc2N2CCOCC2)cc1O

IC50 [1]: 215 nM
Structure (SMILES): COc1ccc(CNC(=O)c2cc(-c3ccco3)ccc2N2CCOCC2)cc1O

IC50 [1]: 220 nM
Structure (SMILES): COc1ccc(CNC(=O)c2cc(NC(C)=O)ccc2N2CCOCC2)cc1O

IC50 [1]: 25 nM | IC50 [3, 13]: 25 nM | IC50 [4]: 30 nM | IC50 [7]: 29 nM | IC50 [8]: 32 nM
Structure (SMILES): COc1ccc(CNC(=O)c2cc(Cl)ccc2N2CCOCC2)cc1O
IC50 [5]: 31 nM | IC50 [6]: 95 nM

IC50 [1]: 388 nM
Structure (SMILES): COc1ccc(CNC(=O)c2cc(-c3ccncc3)ccc2N2CCOCC2)cc1O

IC50 [1]: 977 nM
Structure (SMILES): COc1ccc(CNC(=O)c2cnccc2N2CCOCC2)cc1O

IC50 [1]: 118 nM
Structure (SMILES): COc1ccc(CNC(=O)c2ccncc2N2CCOCC2)cc1O

IC50 [1]: 962 nM
Structure (SMILES): COc1ccc(CNC(=O)c2cc(NC(=O)c3ccncc3)ccc2N2CCOCC2)cc1O

IC50 [1]: 93 nM
Structure (SMILES): COc1ccc(CNC(=O)c2cc([N+](=O)[O-])ccc2N2CCOCC2)cc1F

IC50 [1]: 45 nM | IC50 [3, 13]: 60 nM | IC50 [4]: 57 nM | IC50 [7]: 61 nM | IC50 [8]: 59 nM
Structure (SMILES): COc1ccc(CNC(=O)c2cc([N+](=O)[O-])ccc2N2CCOCC2)cc1O
IC50 [5]: 50 nM | IC50 [6]: 116 nM

IC50 [1]: 306 nM
Structure (SMILES): COc1ccc(CNc2ccc(N3CCOCC3)c(C(=O)NCc3ccc(OC)c(O)c3)c2)cc1

IC50 [1]: 154 nM
Structure (SMILES): COc1ccc(-c2ccc(N3CCOCC3)c(C(=O)NCc3ccc(OC)c(O)c3)c2)cc1

IC50 [1]: 1080 nM
Structure (SMILES): COc1ccc(CNC(=O)c2cc(NCc3ccncc3)ccc2N2CCOCC2)cc1O
